The text below walks through data of ChEMBL document CHEMBL1122888, “22-Hydroxycholesterol derivatives as HMG CoA reductase suppressors and serum cholesterol lowering agents” (1985).

Where only a bound is given, the exact number is not on record here.

One may read the inhibition as the percentage by which the read-out fell short of the control.

Assay [1] concerns the target T1, 3-hydroxy-3-methylglutaryl-coenzyme A reductase (Homo sapiens) (UniProt P04035).
T1 sequence (whole entry): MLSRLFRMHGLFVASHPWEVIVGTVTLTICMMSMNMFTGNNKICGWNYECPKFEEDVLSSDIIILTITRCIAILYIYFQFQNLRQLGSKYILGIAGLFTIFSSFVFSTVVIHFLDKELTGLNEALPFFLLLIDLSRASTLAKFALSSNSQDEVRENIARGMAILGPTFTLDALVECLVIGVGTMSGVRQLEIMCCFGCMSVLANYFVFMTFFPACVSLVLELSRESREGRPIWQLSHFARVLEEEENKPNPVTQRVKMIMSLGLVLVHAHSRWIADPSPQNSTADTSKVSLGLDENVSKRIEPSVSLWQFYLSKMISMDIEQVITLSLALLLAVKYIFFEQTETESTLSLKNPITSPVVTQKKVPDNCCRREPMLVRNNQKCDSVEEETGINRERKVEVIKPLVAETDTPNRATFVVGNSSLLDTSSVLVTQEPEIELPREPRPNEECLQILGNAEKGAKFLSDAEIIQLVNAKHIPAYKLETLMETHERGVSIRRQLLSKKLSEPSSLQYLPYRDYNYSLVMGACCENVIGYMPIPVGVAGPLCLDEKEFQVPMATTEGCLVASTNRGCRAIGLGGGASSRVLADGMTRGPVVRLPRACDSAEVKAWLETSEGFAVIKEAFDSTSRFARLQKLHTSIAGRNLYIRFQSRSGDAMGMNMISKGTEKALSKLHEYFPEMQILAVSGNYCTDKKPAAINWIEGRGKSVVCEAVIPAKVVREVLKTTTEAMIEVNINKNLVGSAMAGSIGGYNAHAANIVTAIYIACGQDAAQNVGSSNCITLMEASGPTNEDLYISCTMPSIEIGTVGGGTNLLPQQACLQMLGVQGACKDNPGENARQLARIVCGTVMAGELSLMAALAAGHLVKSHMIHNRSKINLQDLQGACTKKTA
As to the kind of experiment: Evaluated in human fibroblast tissue culture assays for suppression of HMG-CoA reductase at concentration of 1 ug/mL.

Assay [2] relates to Monkey. As to the kind of experiment: Evaluated for serum lipoprotein LDL levels in the 14 day treated monkey at dose (10 mg/kg/day, ig) over a 2-week period. It is filed as functional, Cercopithecidae. On the set-up: reference not given here.
Assay [3] relates to Monkey. As to the kind of experiment: Evaluated for serum lipoprotein HDL levels in the 14 day treated rhesus monkey at dose (10 mg/kg/day, ig) over a 2-week period. It is filed as functional, Cercopithecidae. On the set-up: reference not given here.
For assay [4], the species on record is Rattus norvegicus. Nature of the assay: Minimum effective dose necessary to produce >=25% decrease of elevated liver HMG CoA reductage levels in diazasterol treated rats. It is filed as functional. To be noted: read-out: MED.
For assay [5], the target named is T1, 3-hydroxy-3-methylglutaryl-coenzyme A reductase (Homo sapiens). Nature of the assay: Evaluated for serum cholesterol levels in the 14 day treated primate (male rhesus monkeys) at dose (10 mg/kg/day, ig) over a 2-week period. It is filed as functional, organism-based. The settings on record: Cercopithecidae; target entry is the homologue from another species.

Assay [6] deals with HMG-CoA reductase (Rattus norvegicus). As to the kind of experiment: Evaluated for the percent suppression of elevated liver HMG-CoA reductase in Diazoesterol treated rats.
Assay [7] relates to Monkey. As to the kind of experiment: Evaluated for serum cholesterol VLDL levels in the 14 day treated monkey at dose (10 mg/kg/day, ig) over a 2-week period. The assay is classed as functional, Cercopithecidae.
The species named for assay [8] is Rattus norvegicus. Nature of the assay: Minimum effective dose necessary to produce >=25% decrease of elevated liver HMG CoA reductage levels. It is filed as functional. The settings on record: read-out: MED.
For assay [9], the target named is T1, 3-hydroxy-3-methylglutaryl-coenzyme A reductase (Homo sapiens). Nature of the assay: Evaluated for serum cholesterol levels in the 14 day treated rhesus monkeys at dose (10 mg/kg/day, ig) over a 2-week period. The assay is classed as functional, organism-based. The settings on record: Cercopithecidae; target entry is the homologue from another species.

With `C[C@H](C(O)CCC(C)(C)C)C1CCC2C3CC=C4CC(O)CCC4(C)C3CCC21C` (stereo partly drawn), the inhibition in [1] is 95%. Also, the Lipoprotein level is given as 25% in the assay on Monkey [2] and 66% with Monkey [3]. The minimal effective dose in the assay listed under Rattus norvegicus [4] was 0.5 mg/kg. Also, the values for the cholesterol level (in assay [5]; with Monkey [7]) were 167 mg/dL and 6 mg/dL, respectively. This compound also showed a Suppression in [6] of 39%.
`C[C@H](C(O)CCC1CC1)C1CCC2C3CC=C4CC(O)CCC4(C)C3CCC21C` (stereo partly drawn) registered an inhibition in [1] greater than 95%. Also, the Lipoprotein level with Monkey [2] turned out to be 23%; with Monkey [3] it was 68%. The minimal effective dose in the assay filed under Rattus norvegicus [8] was 0.5 mg/kg. Moreover, the figures for the cholesterol level (in assay [9]; in the assay on Monkey [7]) were 179 mg/dL and 4 mg/dL, respectively. Moreover, the Suppression in assay [6] came to 30%.
For the compound `CC(C)CCC(O)[C@@H](C)[C@H]1CC[C@H]2[C@@H]3CC=C4C[C@@H](O)CC[C@]4(C)[C@H]3CC[C@]12C` (stereo partly drawn), the minimal effective dose in the assay listed under Rattus norvegicus [8] is greater than 30 mg/kg.
With `C[C@H](C(O)CCC(C)(C)Cl)C1CCC2C3CC=C4CC(O)CCC4(C)C3CCC21C` (stereo partly drawn), the Lipoprotein level is listed as 22% in the assay with Monkey [2] and 70% in the assay with Monkey [3]. In the assay filed under Rattus norvegicus [8], the minimal effective dose was found to be 0.2 mg/kg. Moreover, the cholesterol level was 168 mg/dL in assay [9] and 4 mg/dL in the assay with Monkey [7]. In [6], this compound showed a Suppression of 28%.
For `C[C@H](C(O)CCC(C)(C)F)C1CCC2C3CC=C4CC(O)CCC4(C)C3CCC21C` (stereo partly drawn), the inhibition in assay [1] is greater than 95%. In addition, the figures for the Lipoprotein level with Monkey [2] and in the assay on Monkey [3] were 25% and 61%, respectively. Also, in the assay filed under Rattus norvegicus [8], the minimal effective dose came out at 0.5 mg/kg. Besides, the results for the cholesterol level (in assay [9]; in the assay on Monkey [7]) were 150 mg/dL and 8 mg/dL, respectively. Moreover, the Suppression in [6] amounted to 26%.
